Assay results: ChEMBL document CHEMBL1127260, “EMD 61 753 as a favourable representative of structurally novel arylacetamido-type K opiate receptor agonists” (Bioorg Med Chem Lett, 1994)

Key:
Mus musculus [1] = assay: Inhibitory dose (sc) in the formalin test in mice at late phase; assay type: functional; conditions: read-out: ID50 (the source's name)
Mus musculus [2] = assay: Inhibitory dose (sc) in the formalin test in mice at early phase; assay type: functional; conditions: read-out: ID50 (the source's name)
Mu-type opioid receptor = Mu-type opioid receptor (Rattus norvegicus, UniProt P33535); assay: Affinity to mu opioid receptor determined in the presence of [3H]- PL 017 using membranes prepared from rat cerebrum
[3] = target: Delta-type opioid receptor (Rattus norvegicus, UniProt P33533); assay: Affinity to delta opioid receptor determined in the presence of [3H]- [D-Pen2,5]enkephalin using membranes prepared from rat cerebrum
[4] = target: Kappa-type opioid receptor (Cavia porcellus, UniProt P41144); assay: Affinity at K opioid receptor on membranes prepared from guinea pig cerebellum by [3H]- 69593 displacement.; assay type: tissue-based
Sequence of Kappa-type opioid receptor (P41144 whole entry): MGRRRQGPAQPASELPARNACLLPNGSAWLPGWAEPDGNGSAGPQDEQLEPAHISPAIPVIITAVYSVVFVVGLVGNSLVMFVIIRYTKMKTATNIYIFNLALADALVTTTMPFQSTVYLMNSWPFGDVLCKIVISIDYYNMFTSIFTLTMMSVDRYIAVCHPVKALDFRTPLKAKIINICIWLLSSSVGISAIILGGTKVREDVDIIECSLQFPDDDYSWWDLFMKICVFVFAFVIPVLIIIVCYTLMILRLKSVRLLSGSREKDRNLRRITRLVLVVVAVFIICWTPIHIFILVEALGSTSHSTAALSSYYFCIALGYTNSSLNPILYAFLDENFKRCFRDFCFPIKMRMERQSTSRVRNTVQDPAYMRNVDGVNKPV

Sequence of Mu-type opioid receptor (P33535 whole entry): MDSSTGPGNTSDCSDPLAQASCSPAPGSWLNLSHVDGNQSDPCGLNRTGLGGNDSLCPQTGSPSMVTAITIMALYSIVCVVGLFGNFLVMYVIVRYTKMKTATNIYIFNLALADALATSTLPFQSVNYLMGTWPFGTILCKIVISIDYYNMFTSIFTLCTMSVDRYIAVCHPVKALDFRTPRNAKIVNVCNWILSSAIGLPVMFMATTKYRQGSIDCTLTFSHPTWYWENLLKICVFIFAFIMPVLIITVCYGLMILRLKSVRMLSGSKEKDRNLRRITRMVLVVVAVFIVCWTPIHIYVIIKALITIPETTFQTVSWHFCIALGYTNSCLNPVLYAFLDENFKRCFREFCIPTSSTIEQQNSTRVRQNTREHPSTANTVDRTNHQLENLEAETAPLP
Sequence of Delta-type opioid receptor (P33533 whole entry): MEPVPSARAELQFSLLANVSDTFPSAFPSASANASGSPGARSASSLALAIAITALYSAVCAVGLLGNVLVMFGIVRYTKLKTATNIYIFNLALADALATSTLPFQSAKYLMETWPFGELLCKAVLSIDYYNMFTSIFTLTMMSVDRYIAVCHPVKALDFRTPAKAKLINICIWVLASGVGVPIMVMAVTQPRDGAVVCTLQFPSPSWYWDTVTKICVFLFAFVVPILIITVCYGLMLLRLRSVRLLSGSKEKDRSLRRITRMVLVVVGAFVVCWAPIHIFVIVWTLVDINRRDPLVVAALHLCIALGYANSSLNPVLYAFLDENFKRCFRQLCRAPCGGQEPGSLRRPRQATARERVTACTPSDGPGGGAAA

Compound | ED50 (Mus musculus [1]) [mg/kg] | ED50 (Mus musculus [2]) [mg/kg] | Ki (Mu-type opioid receptor) [µM] | Ki [3] [µM] | Ki ([4]; read-out: Ki) [µM] | Ki [4] [nM l-1]
CN1CC[C@]23c4c5ccc(O)c4O[C@H]2[C@@H](O)C=C[C@H]3[C@H]1C5 [MORPHINE] | 3.4 | 1.7 |  |  |  | 
CN(C(=O)C1c2ccccc2-c2ccccc21)[C@H](CN1CC[C@H](O)C1)c1ccccc1 |  |  | 0.04 | 0.06 | 0.006 | 
CC(=O)Nc1cccc([C@@H](CN2CC[C@H](O)C2)N(C)C(=O)C(c2ccccc2)c2ccccc2)c1 |  |  |  |  | 0.006 | 
CN(C(=O)C1c2ccccc2CCc2ccccc21)[C@H](CN1CC[C@H](O)C1)c1ccccc1.Cl |  |  | > 0.1 | > 0.1 |  | 20
CN(C(=O)C(c1ccccc1)C1CCCCC1)[C@H](CN1CC[C@H](O)C1)c1ccccc1 (stereo in doubt; form 2) |  |  | > 0.1 | > 0.1 | 0.01 | 
CN(C(=O)C(c1ccc(F)cc1)c1ccc(F)cc1)[C@H](CN1CC[C@H](O)C1)c1ccccc1 |  |  | > 0.1 | > 0.1 | 0.007 | 
CN(C(=O)C1c2ccccc2Oc2ccccc21)[C@H](CN1CC[C@H](O)C1)c1ccccc1 |  |  | > 0.1 | > 0.1 | 0.004 | 
CN(C(=O)C(c1ccccc1)c1ccccc1)[C@H](CN1CC[C@H](O)C1)c1ccc(O)cc1 |  |  |  |  | 0.006 | 
CN(C(=O)C(c1ccccc1)c1ccccc1)[C@H](CN1CC[C@H](O)C1)c1cccc([N+](=O)[O-])c1.Cl |  |  |  |  |  | 20
CN(C(=O)C1c2ccccc2Cc2ccccc21)[C@H](CN1CC[C@H](O)C1)c1ccccc1 |  |  | > 0.1 | > 0.1 | 0.004 | 
CN(C(=O)C(c1ccccc1)c1ccccc1)[C@H](CN1CC[C@H](O)C1)c1ccccc1.Cl [ASIMADOLINE HYDROCHLORIDE] | 0.24 | > 2 | > 0.1 | > 0.1 |  | 
CN(C(=O)C(c1ccc(Cl)cc1)c1ccc(Cl)cc1)[C@H](CN1CC[C@H](O)C1)c1ccccc1 |  |  | > 0.1 | > 0.1 | 0.005 | 
CN(C(=O)C1c2ccccc2Sc2ccccc21)[C@H](CN1CC[C@H](O)C1)c1ccccc1 |  |  | > 0.1 | > 0.1 | 0.01 | 
CN(C(=O)C(c1ccccc1)C1CCCCC1)[C@H](CN1CC[C@H](O)C1)c1ccccc1 (stereo in doubt; form 1) |  |  | > 0.1 | > 0.1 | 0.01 | 
COc1ccc([C@@H](CN2CC[C@H](O)C2)N(C)C(=O)C(c2ccccc2)c2ccccc2)cc1 |  |  |  |  | 0.007 | 
CN(C(=O)C(c1cccs1)c1cccs1)[C@H](CN1CC[C@H](O)C1)c1ccccc1 |  |  | > 0.1 | > 0.1 | 0.004 | 
CC(C)[C@@H](CN1CCCC1)N(C)C(=O)Cc1ccc(Cl)c(Cl)c1 | 0.02 | 0.04 |  |  |  | 
CN(C(=O)C(c1ccccc1)c1ccccc1)[C@H](CN1CC[C@H](O)C1)c1cccc(N)c1 |  |  |  |  | 0.006 | 
Cc1ccc(C(C(=O)N(C)[C@H](CN2CC[C@H](O)C2)c2ccccc2)c2ccc(C)cc2)cc1.Cl |  |  | > 0.1 | > 0.1 |  | 20
